Assay results taken from patent US20070049592A1, “Bis-aryl urea compounds and methods of use” (priority 2005, published 2007).

What follows are compounds tested on Human Umbilical Vein Endothelial cells (assay: HUVEC proliferation assay (VEGF)). Details: VEGF-stimulated HUVEC proliferation.
Format: cell-based
Method: Human Umbilical Vein Endothelial cells are purchased from Clonetics, Inc., as cryopreserved cells harvested from a pool of donors. These cells, at passage 1, are thawed and expanded in EBM-2 complete medium, until passage 2 or 3. The cells are trypsinized, washed in DMEM+10% FBS+antibiotics, and spun at 1000 rpm for 10 min. Prior to centrifugation of the cells, a small amount is collected for a cell count. After centrifugation, the medium is discarded, and the cells are resuspended in the appropriate volume of DMEM+10% FBS+antibiotics to achieve a concentration of 3×10^5 cells/mL. Another cell count is performed to confirm the cell concentration. The cells are diluted to 3×10^4 cells/mL in DMEM+10% FBS+antibiotics, and 100 μL of cells are added to a 96-well plate. The cells are incubated at 37° C. for 22 h.
Prior to the completion of the incubation period, compound dilutions are prepared. Five-point, five-fold serial dilutions are prepared in DMSO, at concentrations 400-fold greater than the final concentrations desired. 2.5 μL of each compound dilution are diluted further in a total of 1 mL DMEM+10% FBS+antibiotics (400× dilution). Medium containing 0.25% DMSO is also prepared for the 0 μM compound sample. At the 22 h timepoint, the medium is removed from the cells, and 100 μL of each compound dilution is added. The cells are incubated at 37° C. for 2-3 h.
During the compound pre-incubation period, the growth factors are diluted to the appropriate concentrations. Solutions of DMEM+10% FBS+antibiotics, containing either VEGF or bFGF at the following concentrations: 50, 10, 2, 0.4, 0.08, and 0 ng/mL are prepared. For the compound-treated cells, solutions of VEGF at 550 ng/mL or bFGF at 220 ng/mL for 50 ng/mL or 20 ng/mL final concentrations, respectively, are prepared since 10 μL of each will be added to the cells (110 μL final volume). At the appropriate time after adding the compounds, the growth factors are added. VEGF is added to one set of plates, while bFGF is added to another set of plates. For the growth factor control curves, the media on wells B4-G6 of plates 1 and 2 are replaced with media containing VEGF or bFGF at the varying concentrations (50-0 ng/mL). The cells are incubated at 37° C. for an additional 72 h.
At the completion of the 72 h incubation period, the medium is removed, and the cells are washed twice with PBS. After the second wash with PBS, the plates are tapped gently to remove excess PBS, and the cells are placed at −70° C. for at least 30 min. The cells are thawed and analyzed using the CyQuant fluorescent dye (Molecular Probes C-7026), following the manufacturer's recommendations. The plates are read on a Victor/Wallac 1420 workstation at 485 nm/530 nm (excitation/emission). Raw data is collected and analyzed using a 4-parameter fit equation in XLFit. IC50 values are then determined.

Row | SMILES | IC50 [µM]
1 | CNc1cc(N(C)C(=O)Nc2cc(C(=O)Nc3ccc(C(C)C)c(C)c3)ccc2C)ncn1 [Example 19] | < 5
2 | CNc1cc(N(C)C(=O)Nc2cc(C(=O)Nc3ccc4c(c3)N(C(C)=O)CC4(C)C)ccc2C)ncn1 [Example 21, N-(1-acetyl-3,3-dimethyl-2,3-dihydro-1H-indol-6-yl)-4-methyl-3-(((methyl(6-(methylamino)-4-pyrimidinyl)amino)carbonyl)amino)benzamide] | < 5
3 | Cc1ccc(C(=O)Nc2cccc(C(C)C)c2)cc1NC(=O)N(CCCN1CCOCC1)c1ccncn1 [Example 22, 4-methyl-N-(3-(1-methylethyl)phenyl)-3-((((3-(4-morpholinyl)propyl)(4-pyrimidinyl)amino)carbonyl)amino)benzamide] | < 5
4 | CNc1cc(N(C)C(=O)Nc2cc(C(=O)Nc3cccc(N(C)C)c3)ccc2C)ncn1 [Example 26, N-(3-(dimethylamino)phenyl)-4-methyl-3-((methyl(6-(methylamino)-4-pyrimidinyl)amino)carbonylamino)benzamide] | < 5
5 | CNc1ncnc(N(C)C(=O)Nc2cc(C(=O)Nc3ccc(C(C)(C)C)cc3)ccc2C)n1 [Example 27, N-(4-1,1-(dimethylethyl)phenyl)-4-methyl-3-(((methyl(4-(methylamino)-1,3,5-triazin-2-yl)amino)carbonyl)amino)benzamide] | < 5
6 | CNc1ncnc(N(C)C(=O)Nc2cc(C(=O)Nc3cccc(N(C)C)c3)ccc2C)n1 [Example 28] | < 5
7 | CNc1nccc(N(CCCN2CCOCC2)C(=O)Nc2cc(C(=O)Nc3cccc(C(C)C)c3)ccc2C)n1 [Example 29, 4-methyl-3-((((2-(methylamino)-4-pyrimidinyl) (3-(4-morpholinyl)propyl)amino)carbonyl)amino)-N-(3-(1-methylethyl)phenyl)benzamide] | < 5
8 | CNc1cc(N(C)C(=O)Nc2cc(C(=O)Nc3ccc4sc(C)nc4c3)ccc2C)ncn1 [Example 33, 4-methyl-N-(2-methyl-1,3-benzothiazol-5-yl)-3-(((methyl(6-(methylamino)-4-pyrimidinyl)amino)carbonyl)amino)benzamide] | < 5
9 | CNc1cc(N(C)C(=O)Nc2cc(C(=O)Nc3cc(C(F)(F)F)ccc3OCCN3CCCC3)ccc2C)ncn1 [Example 34, 4-methyl-3-(((methyl(6-(methylamino)-4-pyrimidinyl)amino)carbonyl)amino)-N-(2-((2-(1-pyrrolidinyl)ethyl)oxy)-5-(trifluoromethyl)phenyl)benzamide] | < 5
10 | CNc1ncnc(N(C)C(=O)Nc2cc(C(=O)Nc3ccc4sc(C)nc4c3)ccc2C)n1 [Example 35, 4-methyl-N-(2-methyl-1,3-benzothiazol-5-yl)-3-(((methyl(4-(methylamino)-1,3,5-triazin-2-yl)amino)carbonyl)amino)benzamide] | < 5
11 | CNc1ncnc(N(C)C(=O)Nc2cc(C(=O)Nc3cc(OC)cc(C(F)(F)F)c3)ccc2C)n1 [Example 36, 4-methyl-3-(((methyl(4-(methylamino)-1,3,5-triazin-2-yl)amino)carbonyl)amino)-N-(3-(methyloxy)-5-(trifluoromethyl)phenyl)benzamide] | < 5
12 | CNc1ncnc(N(C)C(=O)Nc2cc(C(=O)Nc3cccc(C(F)(F)F)c3C)ccc2C)n1 [Example 37, 4-methyl-3-(((methyl(4-(methylamino)-1,3,5-triazin-2-yl)amino)carbonyl)amino)-N-(2-methyl-3-(trifluoromethyl)phenyl)benzamide] | < 5
13 | CNc1ncnc(N(C)C(=O)Nc2cc(C(=O)Nc3ccc(C(C)C)c(C)c3)ccc2C)n1 [Example 38, 4-methyl-3-(((methyl(4-(methylamino)-1,3,5-triazin-2-yl)amino)carbonyl)amino)-N-(3-methyl-4-(1-methylethyl)phenyl)benzamide] | < 5
14 | CNc1ncnc(N(C)C(=O)Nc2cc(C(=O)Nc3cccc(-c4ccccc4)c3)ccc2C)n1 [Example 39, N-(1,1′-biphenyl-3-yl)-4-methyl-3-(((methyl(4-(methylamino)-1,3,5-triazin-2-yl)amino)carbonyl)amino)benzamide] | < 5
